# Like-named read-outs stand apart in the source and are kept apart here.
# Columns and labels:
# hGCGR = biological target: T1, hGCGR (Homo sapiens, UniProt P47871); experiment: Functional cAMP formation (HTRF) in HEK-293 clonal cells expressing hGCGR, 0.1% bovine casein, without or with 1.0% human serum albumin; format: cell-based; settings: geometric mean, read-out: hGCGR EC50, nM (SEM, n)
# T1 construct: expressed in transfected cells
# How it was run: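 Readings of the HTRF 665/620 nm ratio, which falls as cAMP rises, were converted to nM cAMP using a standard curve after 30 min peptide exposure at 37° C.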
# hGLP-1R = hGLP-1R (Homo sapiens, UniProt P43220); experiment: Functional cAMP formation (HTRF) in HEK-293 clonal cells expressing hGLP-1R, 0.1% bovine casein, without or with 1.0% human serum albumin; format: cell-based; parameters: expressed in transfected cells; settings: for Emax: 37° C., read-out: hGLP-1R Emax, % ± SEM; for EC50: cAMP, incubated at 37° C., 0.1% bovine casein (no human serum albumin), geometric mean, read-out: hGLP-1R EC50, nM (SEM, n)
# Method: After a 30-min incubation at 37° C., the resulting increase in intracellular cAMP is quantitatively determined using a CisBio cAMP Dynamic 2 HTRF Assay Kit (62AM4PEJ). Briefly, cAMP levels within the cell are detected by adding the cAMP-d2 conjugate in cell lysis buffer (10 µL) followed by the antibody anti-cAMP-Eu^3+-Cryptate, also in cell lysis buffer (10 µL). The resulting competitive assay is incubated for at least 60 min at room temperature, and then is detected using a PerkinElmer Envision® instrument with excitation at 320 nm and emission at 665 nm and 620 nm. Envision units (emission at 665 nm/620 nm* 10,000) are inversely proportional to the amount of cAMP present and are converted to nM cAMP per well us-ing a cAMP standard curve. […] A relative EC50 value and percent top (Emax) are derived by non-linear regression analysis using the percent maximal response vs. the concentration of peptide added, fitted to a four-parameter logistic equation.
# [1] = cAMP, incubated at 37° C., 0.1% bovine casein (no human serum albumin)
# hGLP-1R, sequence (P43220 24-463): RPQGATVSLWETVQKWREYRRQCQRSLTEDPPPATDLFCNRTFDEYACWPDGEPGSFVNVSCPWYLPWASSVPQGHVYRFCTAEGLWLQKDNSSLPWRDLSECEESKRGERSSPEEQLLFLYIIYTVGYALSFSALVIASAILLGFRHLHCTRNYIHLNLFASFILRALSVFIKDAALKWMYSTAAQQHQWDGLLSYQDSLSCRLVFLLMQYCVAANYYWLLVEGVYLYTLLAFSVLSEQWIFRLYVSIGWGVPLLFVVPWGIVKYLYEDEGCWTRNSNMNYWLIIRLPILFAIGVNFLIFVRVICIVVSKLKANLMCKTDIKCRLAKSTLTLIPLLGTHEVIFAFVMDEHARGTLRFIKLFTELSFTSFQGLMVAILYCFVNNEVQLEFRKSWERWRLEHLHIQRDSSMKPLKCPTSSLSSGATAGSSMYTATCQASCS
# T1 sequence (P47871 26-477): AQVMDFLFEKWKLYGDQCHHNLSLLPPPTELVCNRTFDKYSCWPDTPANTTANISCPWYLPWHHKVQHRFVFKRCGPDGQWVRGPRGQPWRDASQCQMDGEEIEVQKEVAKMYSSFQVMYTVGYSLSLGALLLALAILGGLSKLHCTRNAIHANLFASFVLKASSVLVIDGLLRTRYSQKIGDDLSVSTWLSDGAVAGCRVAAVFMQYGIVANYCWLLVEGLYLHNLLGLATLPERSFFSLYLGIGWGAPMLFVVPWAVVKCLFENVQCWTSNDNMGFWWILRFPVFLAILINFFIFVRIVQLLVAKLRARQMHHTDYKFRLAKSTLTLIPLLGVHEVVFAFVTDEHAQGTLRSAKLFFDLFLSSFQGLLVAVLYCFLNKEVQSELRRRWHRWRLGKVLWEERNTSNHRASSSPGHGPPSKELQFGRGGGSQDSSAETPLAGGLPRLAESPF
smiles,measurement,setting,value
CC[C@H](C)[C@H](NC(=O)[C@H](CC(C)C)NC(=O)[C@](C)(Cc1ccc(O)cc1)NC(=O)[C@@H](CCC(=O)O)NC(=O)[C@@H](NC(=O)[C@H](Cc1ccccc1)NC(=O)[C@H](CCC(=O)O)NC(=O)C(C)(C)NC(=O)[C@H](CCC(N)=O)NC(=O)[C@H](C)NC(=O)[C@H](CCCCNC(=O)COCCOCCNC(=O)COCCOCCNC(=O)CC[C@H](NC(=O)CCCCCCCCCCCCC(=O)O)C(=O)O)NC(=O)[C@H](CCCN)NC(=O)[C@H](CC(=O)O)NC(=O)[C@H](CC(C)C)NC(=O)[C@](C)(CC(C)C)NC(=O)[C@@H](NC(=O)[C@H](CO)NC(=O)C1(NC(=O)[C@H](CC(=O)O)NC(=O)[C@H](CO)NC(=O)[C@@H](NC(=O)[C@](C)(Cc2ccccc2F)NC(=O)[C@@H](NC(=O)CNC(=O)[C@H](CCC(=O)O)NC(=O)C(C)(C)NC(=O)[C@@H](N)Cc2ccc(O)cc2)[C@@H](C)O)[C@@H](C)O)CCCC1)[C@@H](C)CC)[C@@H](C)CC)C(=O)N[C@@H](CCC(=O)O)C(=O)NCC(=O)NCC(=O)N[C@@H](CCCCNC(=O)COCCOCCNC(=O)COCCOCCNC(=O)CC[C@H](NC(=O)CCCCCCCCCCCCC(=O)O)C(=O)O)C(=O)N[C@@H](CO)C(=O)N[C@@H](CO)C(=O)NCC(=O)N[C@@H](C)C(=O)N1CCC[C@H]1C(=O)N1CCC[C@H]1C(=O)N1CCC[C@H]1C(=O)N[C@@H](CO)C(N)=O [Example 53],EC50,"hGCGR; 0.1% bovine casein and 1.0% human serum albumin, 37° C.",> 9950 nM
same,EC50,hGCGR; [1],> 9950 nM
same,Emax,"hGLP-1R; HEK293, 0.1% bovine casein and 1.0% human serum albumin, percent of maximal response to GLP-1(7-36)NH2",89.3 ± 6.12%
same,Emax,"hGLP-1R; HEK293, percent of maximal response to GLP-1(7-36)NH2, 0.1% bovine casein, arithmetic mean",89.9 ± 9.41%
same,EC50,hGLP-1R,0.18 nM
CC[C@H](C)[C@H](NC(=O)[C@H](CCCN)NC(=O)[C@H](CC(=O)O)NC(=O)[C@H](CC(C)C)NC(=O)[C@](C)(CC(C)C)NC(=O)[C@@H](NC(=O)[C@H](CO)NC(=O)[C@H](CCCCNC(=O)COCCOCCNC(=O)COCCOCCNC(=O)CC[C@H](NC(=O)CCCCCCCCCCCCC(=O)O)C(=O)O)NC(=O)[C@H](CC(=O)O)NC(=O)[C@H](CO)NC(=O)[C@@H](NC(=O)[C@](C)(Cc1ccccc1F)NC(=O)[C@@H](NC(=O)CNC(=O)[C@H](CCC(=O)O)NC(=O)C(C)(C)NC(=O)[C@@H](N)Cc1ccc(O)cc1)[C@@H](C)O)[C@@H](C)O)[C@@H](C)CC)C(=O)N[C@@H](C)C(=O)N[C@@H](CCC(N)=O)C(=O)NC(C)(C)C(=O)N[C@@H](CCCCNC(=O)COCCOCCNC(=O)COCCOCCNC(=O)CC[C@H](NC(=O)CCCCCCCCCCCCC(=O)O)C(=O)O)C(=O)N[C@@H](Cc1ccccc1)C(=O)N[C@H](C(=O)N[C@H](CCC(=O)O)C(=O)N[C@@](C)(Cc1ccc(O)cc1)C(=O)N[C@@H](CC(C)C)C(=O)N[C@H](C(=O)N[C@@H](CCC(=O)O)C(=O)NCC(=O)NCC(=O)N1CCC[C@H]1C(=O)N[C@@H](CO)C(=O)N[C@@H](CO)C(=O)NCC(=O)N[C@@H](C)C(=O)N1CCC[C@H]1C(=O)N1CCC[C@H]1C(=O)N1CCC[C@H]1C(=O)N[C@@H](CO)C(N)=O)[C@@H](C)CC)[C@@H](C)CC [Example 105],EC50,hGCGR; [1],> 9950 nM
same,EC50,hGLP-1R,0.52 nM

# Reference: patent publication US20230265151A1, “GIP/GLP1 CO-AGONIST COMPOUNDS” (priority 2020, published 2023)
